Columns and labels:
KHYG-1 (IL-2 2.5 ng/mL) [1] = assay: percent inhibition of viability; higher = more inhibition; settings: 72 h
[2] = test system: normal primary NK cells, pool 2 (3 donors) (IL-2 2.5 ng/mL); assay: as above; settings: 72 h
DERL-7 (IL-2 2.5 ng/mL) [3] = assay: as above; settings: 72 h
NKL (IL-2 2.5 ng/mL) [4] = assay: as above; settings: 72 h
KAI3 (IL-2 2.5 ng/mL) [5] = assay: as above; settings: 72 h
NK-92 (IL-2 2.5 ng/mL) [6] = assay: as above; settings: 72 h
YT (IL-2 2.5 ng/mL) [7] = assay: as above; settings: 72 h
[8] = test system: normal primary NK cells, pool 3 (3 donors) (IL-2 2.5 ng/mL); assay: as above; settings: 72 h
SNK-6 (IL-2 2.5 ng/mL) [9] = assay: as above; settings: 72 h
[10] = test system: normal primary NK cells, pool 1 (3 donors), resting (IL-2 0 ng/mL); assay: as above; settings: 72 h
IMC-1 (IL-2 20 ng/mL) [11] = assay: as above; settings: 72 h
NK-YS (IL-2 2.5 ng/mL) [12] = assay: as above; settings: 72 h
[13] = test system: normal primary NK cells, pool 1 (3 donors) (IL-2 2.5 ng/mL); assay: as above; settings: 72 h
[14] = test system: normal NK cells expanded with K562-aAPC; assay: drug sensitivity score (DSS) (DSS units); higher = more sensitive; extreme values may be limits of the assay; settings: 72 h; IL-2 2.5 ng/mL
Protocol: (§1)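 Drug sensitivity and resistance testing on K562-aAPC-expanded normal NK cells: 5 concentrations (10-fold steps over a 10,000-fold range), 72 h at 37 °C, viability by CellTiter-Glo normalised to DMSO and benzethonium chloride controls; DSS from the fitted curve.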

KHYG-1 (IL-2 2.5 ng/mL) [15] = assay: as above; settings: 72 h
[16] = test system: normal primary NK cells, pool 2 (3 donors) (IL-2 2.5 ng/mL); assay: as above; settings: 72 h
DERL-7 (IL-2 2.5 ng/mL) [17] = assay: as above; settings: 72 h
NKL (IL-2 2.5 ng/mL) [18] = assay: as above; settings: 72 h
KAI3 (IL-2 2.5 ng/mL) [19] = assay: as above; settings: 72 h
NK-92 (IL-2 2.5 ng/mL) [20] = assay: as above; settings: 72 h
YT (IL-2 2.5 ng/mL) [21] = assay: as above; settings: 72 h
[22] = test system: normal primary NK cells, pool 3 (3 donors) (IL-2 2.5 ng/mL); assay: as above; settings: 72 h
SNK-6 (IL-2 2.5 ng/mL) [23] = assay: as above; settings: 72 h
[24] = test system: normal primary NK cells, pool 1 (3 donors), resting (IL-2 0 ng/mL); assay: as above; settings: 72 h
IMC-1 (IL-2 20 ng/mL) [25] = assay: as above; settings: 72 h
NK-YS (IL-2 2.5 ng/mL) [26] = assay: as above; settings: 72 h
[27] = test system: normal primary NK cells, pool 1 (3 donors) (IL-2 2.5 ng/mL); assay: as above; settings: 72 h
[28] = test system: normal NK cells expanded with K562-aAPC; assay: percent inhibition of viability; higher = more inhibition; settings: 72 h, IL-2 2.5 ng/mL
Protocol: as §1

Cn1cc(CNCC2CCN(c3ncc(C(=O)NO)cn3)CC2)c2ccccc21 [Quisinostat] (max concentration tested 1000 nM)
percent inhibition of viability [%]
Settings | 0.1 nM | 1 nM | 10 nM | 100 nM | 1000 nM
DERL-7 (IL-2 2.5 ng/mL) [3] | 4.2 | 1.75 | 46.9 | 99.6 | 99.1
IMC-1 (IL-2 20 ng/mL) [11] | -4.98 | -0.52 | -8.31 | 99.6 | 99.7
KAI3 (IL-2 2.5 ng/mL) [5] | -2.72 | 8.43 | 36.8 | 88.8 | 97.3
KHYG-1 (IL-2 2.5 ng/mL) [1] | -1.89 | -1.8 | 12.5 | 99.3 | 97.8
NK-92 (IL-2 2.5 ng/mL) [6] | -10.6 | -6.5 | 15.2 | 70.9 | 93.4
NK-YS (IL-2 2.5 ng/mL) [12] | -1.23 | 0.57 | 20.6 | 92.9 | 97.7
NKL (IL-2 2.5 ng/mL) [4] | -9.03 | -1.25 | 43.9 | 99.4 | 96.7
SNK-6 (IL-2 2.5 ng/mL) [9] | 1.8 | 20.8 | -18.7 | 56.4 | 99.2
YT (IL-2 2.5 ng/mL) [7] | 0.16 | -4.15 | 0.59 | 77.7 | 97.8
[2] | -0.78 | 3.43 | 67.6 | 93.8 | 93.9
[8] | -2.24 | -1.5 | 32.9 | 96.6 | 97.4
[10] | -8.56 | 21.3 | 79 | 90.3 | 90
[13] | -12.9 | 4.2 | 58.6 | 97.3 | 96.1
[28] | -4.41 | 2.67 | 27.3 | 98.9 | 99.5

Settings | drug sensitivity score
DERL-7 (IL-2 2.5 ng/mL) [17] | 23.7
IMC-1 (IL-2 20 ng/mL) [25] | 17.2
KAI3 (IL-2 2.5 ng/mL) [19] | 20.6
KHYG-1 (IL-2 2.5 ng/mL) [15] | 19.9
NK-92 (IL-2 2.5 ng/mL) [20] | 15.1
NK-YS (IL-2 2.5 ng/mL) [26] | 19.7
NKL (IL-2 2.5 ng/mL) [18] | 23.6
SNK-6 (IL-2 2.5 ng/mL) [23] | 12.2
YT (IL-2 2.5 ng/mL) [21] | 14.3
[14] | 21.9
[16] | 25.2
[22] | 22.2
[24] | 28.6
[27] | 24.6

CS(=O)(=O)N1CCc2c(-c3cnc(N)nc3)nc(N3CCOCC3)nc21 (max concentration tested 10000 nM)
percent inhibition of viability [%]
Settings | 1 nM | 10 nM | 100 nM | 1000 nM | 10000 nM
DERL-7 (IL-2 2.5 ng/mL) [3] | -3.09 | -4.08 | 3.85 | 42.4 | 85.6
IMC-1 (IL-2 20 ng/mL) [11] | -0.46 | 0.95 | 2.38 | -7.5 | -15.8
KAI3 (IL-2 2.5 ng/mL) [5] | 7.02 | 7.63 | 15.1 | 29.3 | 51.8
KHYG-1 (IL-2 2.5 ng/mL) [1] | 4.51 | -0.98 | -0.03 | 9.84 | 39.7
NK-92 (IL-2 2.5 ng/mL) [6] | -5.62 | -3.32 | 15.7 | 40.8 | 55.8
NK-YS (IL-2 2.5 ng/mL) [12] | 4.61 | 0.28 | 4.3 | 32.1 | 62.7
NKL (IL-2 2.5 ng/mL) [4] | 14.7 | 9.02 | 17.7 | 40.3 | 71.3
SNK-6 (IL-2 2.5 ng/mL) [9] | -21.9 | -10.1 | -16.1 | 5.8 | 44.2
YT (IL-2 2.5 ng/mL) [7] | 2.76 | 1.12 | 1.06 | 26.2 | 75.4
[2] | -2.54 | -3.72 | -0.24 | 21.6 | 34.8
[8] | -11.3 | -9.29 | 13 | 19.5 | 28.9
[10] | -25.7 | -37.9 | 3.84 | -1.15 | 14.8
[13] | -5.22 | -10.5 | 16.6 | 24.4 | 35.2
[28] | -0.53 | -3.07 | 3.27 | 24.3 | 52.9

Settings | drug sensitivity score
DERL-7 (IL-2 2.5 ng/mL) [17] | 9.77
IMC-1 (IL-2 20 ng/mL) [25] | 0
KAI3 (IL-2 2.5 ng/mL) [19] | 7.4
KHYG-1 (IL-2 2.5 ng/mL) [15] | 3.5
NK-92 (IL-2 2.5 ng/mL) [20] | 9.23
NK-YS (IL-2 2.5 ng/mL) [26] | 7.16
NKL (IL-2 2.5 ng/mL) [18] | 10.4
SNK-6 (IL-2 2.5 ng/mL) [23] | 3.23
YT (IL-2 2.5 ng/mL) [21] | 7.87
[14] | 5.59
[16] | 4.2
[22] | 4.2
[24] | 0.17
[27] | 5.87

— the supplement of paper PMC5908809
